Reference: US20250057928A1, “VACCINE COMPOSITION FOR INDUCING ANTI-IL-23 ANTIBODY” (OSAKA UNIVERSITY, priority 2021, published 2025)
Where no end group is shown, it is not given here.

What was measured:
rmIL-23 = experiment: Binding of monkey antiserum to rmIL-23, ELISA; parameters: species or system mouse; conditions: monkey antiserum 6 weeks after the initial administration; second statement of b202, FIG. 7(b) covers rhIL-23 and rmIL-23
Procedure: FIG. 7(a) is a graph showing the antibody titer (GMT) of serum collected over time from Macaca fascicularis administered with AJP001 conjugated peptide (SEQ ID NO: 6). FIG. 7(b) is a graph showing the binding ability to rhIL-23 and rmIL-23 of serum collected from the Macaca fascicularis administered with AJP001 conjugated peptide (SEQ ID NO: 6) at 6 weeks after the first administration. FIG. 7(c) is a graph showing the evaluation of neutralization activity of IgG derived from Macaca fascicularis administered with AJP001 conjugated peptide (SEQ ID NO: 6). FIG. 7(d) is a graph showing the results of epitope mapping of anti-IL-23 antibody induced by AJP001 conjugated peptide (SEQ ID NO: 6).
AJP001 conjugated peptide (SEQ ID NO: 6) was dissolved in physiological saline and subcutaneously administered to Macaca fascicularis (female, […], N=4) at 5 mg/body 3 times at two-week intervals. Blood was collected every two weeks from the first day of administration until week 16, and the antibody titer (GMT) and binding to IL-23 of the serum at each time point were measured by the ELISA method (same method as in Example 1; the secondary antibody used was Anti-Monkey IgG (Abcam)). In FIG. 7, “*” means P<0.05.

[1] = tested on: IL-17 production when mouse splenocytes were stimulated with rhIL-23; experiment: Neutralization activity of IgG purified from monkey antiserum: IL-17 production of mouse splenocytes stimulated with rhIL-23; assay type: cell-based; conditions: 300 μg/mL of IgG derived from monkey antiserum (6 weeks)
Procedure: AJP001 conjugated peptide (SEQ ID NOs: 6-37) was dissolved in physiological saline, mixed with an equal amount of 2% Alhydrogel (invivogen), and this was intradermally administered to BALB/c mice (female, 6-week-old, N=5-6) at 0.5 mg/body 3 times at two-week intervals. Blood was collected before administration and at the time point of 6 weeks after initial administration, and the antibody titer (GMT) to each epitope sequence and binding ability to recombinant human IL-23 protein (rhIL-23) (Peprotech) were measured by the ELISA method (same method as in Example 1). The binding to rhIL-23 was evaluated by a binding ratio to normal serum by calculating the ratio of the absorbance of a well added with normal mouse serum to the absorbance of a well added with antiserum derived from a mouse administered with each AJP001 conjugated peptide (SEQ ID NOs: 6-37). In addition, the neutralization activity of mouse antiserum was evaluated using an action on IL-17 production in rhIL-23 stimulated mouse splenocyte as an index. […]
Then, IgG was purified using Protein G HP spin Trap (GE Healthcare) from the monkey antiserum obtained 6 weeks after the initial administration, and the action on IL-17 production when mouse splenocytes were stimulated with rhIL-23 was evaluated (same method as in Example 5).

[2] = tested on: recombinant human IL-23 protein (rhIL-23); experiment: Binding of mouse antiserum to rhIL-23, ELISA; conditions: antiserum of BALB/c mice, 1 mg/body 3 times, no adjuvant; 6 weeks
Procedure: AJP001 conjugated peptide (SEQ ID NOs: 6-37) was dissolved in physiological saline, mixed with an equal amount of 2% Alhydrogel (invivogen), and this was intradermally administered to BALB/c mice (female, 6-week-old, N=5-6) at 0.5 mg/body 3 times at two-week intervals. Blood was collected before administration and at the time point of 6 weeks after initial administration, and the antibody titer (GMT) to each epitope sequence and binding ability to recombinant human IL-23 protein (rhIL-23) (Peprotech) were measured by the ELISA method (same method as in Example 1). The binding to rhIL-23 was evaluated by a binding ratio to normal serum by calculating the ratio of the absorbance of a well added with normal mouse serum to the absorbance of a well added with antiserum derived from a mouse administered with each AJP001 conjugated peptide (SEQ ID NOs: 6-37). In addition, the neutralization activity of mouse antiserum was evaluated using an action on IL-17 production in rhIL-23 stimulated mouse splenocyte as an index. The spleen of normal BALB/c mouse (female, 5-week-old, N=3) was triturated using a syringe barrel and a cell strainer and washed with and suspended in HBSS (−). Erythrocytes were then removed using ACK Buffer (Thermo fisher scientific), and splenocytes were isolated. The splenocytes were prepared to 2.5×10^6 cells/mL with 10% FBS/1% penicillin/streptomycin/4 ng/mL rmIL-2-containing RPMI1640 medium (culture medium), and seeded in a 96 well plate at 100 μl/well. The antiserum (final concentration 15-fold) of the mice administered with each AJP001 conjugated peptide and rhIL-23 (final concentration 10 ng/ml) were added to the culture medium, reacted at 37° C. for 2 hr, added at 100 μL/well to a 96-well plate seeded with splenocytes, and cultured for 3 days in a 37° C./5% CO2 incubator. An untreated well and a control well to which normal mouse serum and rhIL-23 were added were provided. IL-17A/F in the culture supernatant was measured using Mouse IL-17A/F ELISA kit (R&D systems), the proportion (%) of IL-17 to normal serum was calculated from the IL-17 concentrations of untreated well (A), control well (B), and well (C) to which antiserum of the mice administered with each AJP001 conjugated peptide was added and according to the following formula, and the neutralization activity was evaluated.
AJP001 conjugated peptide (SEQ ID NO: 6) was dissolved in physiological saline and intradermally administered to BALB/c mice (female, 6-week-old, N=6) at 1 mg/body 3 times at two-week intervals, and blood was collected every 2 weeks until 8 weeks. The antibody titer (GMT) of all the collected sera and the binding ability to rhIL-23 of the serum at 6 weeks were measured by the ELISA method. In FIG. 5, “*” means P<0.05.

epitope peptide = experiment: Antibody titer (GMT) of serum of Macaca fascicularis, ELISA; assay type: in vivo; conditions: 5 mg/body subcutaneous 3 times at two-week intervals, blood every two weeks until week 16
Procedure: AJP001 conjugated peptide having one of the B cell epitope sequences of SEQ ID NOs: 1-5 was dissolved in physiological saline and intradermally administered twice to BALB/c mice (female, 6-week-old, N=5-6) at 0.5 mg/body at 2-week intervals. Blood was collected before administration and 5 weeks after the initial administration, and the antibody titer against each AJP001 conjugated peptide and the binding ability to recombinant mouse IL-23 protein (rmIL-23) were measured by the ELISA method. […] After washing the wells with PBS-T, TMB solution (SIGMA) was added, the wells were allowed to stand for 30 min in the dark, the reaction was stopped by adding 0.5M H2SO4, and the absorbance at 450 nm was measured using a plate reader. The serum dilution rate that gave 1/2 (OD=1.75) of the maximum absorbance was defined as the antibody titer, and the geometric mean titer: GMT was calculated from the individual values. Binding to IL-23 protein was measured by the ELISA method in the same manner as the antibody titer, using rmIL-23 (Antibodies-online GmbH) as the solid-phased antigen and goat serum for blocking. […] Blood was collected every two weeks from the first day of administration until week 16, and the antibody titer (GMT) and binding to IL-23 of the serum at each time point were measured by the ELISA method (same method as in Example 1; the secondary antibody used was Anti-Monkey IgG (Abcam)). […]

SEQ ID NO 6: AJP001-Ahx-B cell epitope peptide conjugate; epitope SPSQPWQR (human 151-158) (not fully specified (N-terminus); listed as Homo sapiens)
binding to rmIL-23 (rmIL-23): not observed
IL-17 production [1]: suppressed
binding ability to rhIL-23 [2]: confirmed
antibody titer (GMT) over time (epitope peptide): increased from 2 weeks after the initial administration and persisted until 16 weeks
